Experimental data published in ChEMBL document CHEMBL5365396, “Design, synthesis and anti-tumor evaluation of plinabulin derivatives as potential agents targeting β-tubulin” (Bioorg Med Chem Lett, 2023).
Activity calls are given as the source filed them. No cut-off for these calls is given here.

What was measured:
NCI-H460 = assay: Antiproliferative activity against human NCI-H460 cells assessed as cell growth inhibition by MTT assay; type: functional, cell-based
HCT-116 [1] = assay: Antiproliferative activity against human HCT-116 cells assessed as cell growth inhibition by MTT assay; type: functional, cell-based
BXPC-3 = assay: Antiproliferative activity against human BXPC-3 cells assessed as cell growth inhibition by MTT assay; type: functional, cell-based
[2] = biological target: T1, Tubulin beta (Homo sapiens) (UniProt P68371+Q9H4B7+Q13509+P04350+Q3ZCM7+P07437+Q13885+Q9BVA1+Q9BUF5+A6NNZ2); assay: Induction of beta-tubulin depolymerization in human HCT-116 cells assessed as microtubule disruption at 10 nM incubated for 24 hrs by DAPI staining based immunofluorescence assay relative to control; type: cell-based
[3] = biological target: T1, Tubulin beta (Homo sapiens); assay: Induction of beta-tubulin depolymerization in human HCT-116 cells assessed as disruption of microtubule network by measuring abnormality in formation of spindle bodies at 10 nM measured after 24 hrs by DAPI staining based immunofluorescence assay; type: cell-based
HCT-116 [4] = assay: Induction of cell cycle arrest in human HCT-116 cells assessed as increase in accumulation at G2/M phase by propidium iodide staining based flow cytometry; type: functional; conditions: dose 5-20 nM
HCT-116 [5] = assay: Induction of cell cycle arrest in human HCT-116 cells assessed as increase in accumulation at G2/M phase at 5 nM by propidium iodide staining based flow cytometry relative to control; type: functional
HCT-116 [6] = assay: Induction of cell cycle arrest in human HCT-116 cells assessed as increase in accumulation at G2/M phase at 10 nM by propidium iodide staining based flow cytometry relative to control; type: functional
HCT-116 [7] = assay: Induction of cell cycle arrest in human HCT-116 cells assessed as increase in accumulation at G2/M phase at 20 nM by propidium iodide staining based flow cytometry relative to control; type: functional
HCT-116 [8] = assay: Induction of apoptosis in human HCT-116 cells assessed as increase in late apoptosis cells at 20 nM by Annexin-V-FITC and PI staining based flow cytometry analysis relative to control; type: functional
HCT-116 [9] = assay: Induction of apoptosis in human HCT-116 cells assessed as increase in early apoptosis cells at 20 nM by Annexin-V-FITC and PI staining based flow cytometry analysis relative to control; type: functional
HCT-116 [10] = assay: Induction of cell cycle arrest in human HCT-116 cells assessed as accumulation of cells at G1 phase at 5 nM by propidium iodide staining based flow cytometry analysis (reference value: 37.85 %); type: functional
HCT-116 [11] = assay: Induction of cell cycle arrest in human HCT-116 cells assessed as accumulation of cells at S phase at 5 nM by propidium iodide staining based flow cytometry analysis (reference value: 39.4 %); type: functional
HCT-116 [12] = assay: Induction of cell cycle arrest in human HCT-116 cells assessed as accumulation of cells at G1 phase at 10 nM by propidium iodide staining based flow cytometry analysis (reference value: 37.85 %); type: functional
HCT-116 [13] = assay: Induction of cell cycle arrest in human HCT-116 cells assessed as accumulation of cells at S phase at 10 nM by propidium iodide staining based flow cytometry analysis (reference value: 39.4 %); type: functional
HCT-116 [14] = assay: Induction of cell cycle arrest in human HCT-116 cells assessed as accumulation of cells at G1 phase at 20 nM by propidium iodide staining based flow cytometry analysis (reference value: 37.85 %); type: functional
HCT-116 [15] = assay: Induction of cell cycle arrest in human HCT-116 cells assessed as accumulation of cells at S phase at 20 nM by propidium iodide staining based flow cytometry analysis (reference value: 39.4 %); type: functional
[16] = Induction of apoptosis in human HCT-116 cells assessed as early apoptotic cells at 5 nM by Annexin-V-FITC and PI staining based flow cytometry (reference value: 3.20 %); type: functional
HCT-116 [17] = assay: Induction of apoptosis in human HCT-116 cells assessed as late apoptotic cells at 5 nM by Annexin-V-FITC and PI staining based flow cytometry (reference value: 1.75 %); type: functional
HCT-116 [18] = assay: Induction of apoptosis in human HCT-116 cells assessed as early apoptotic cells at 10 nM by Annexin-V-FITC and PI staining based flow cytometry (reference value: 3.20 %); type: functional
HCT-116 [19] = assay: Induction of apoptosis in human HCT-116 cells assessed as late apoptotic cells at 10 nM by Annexin-V-FITC and PI based flow cytometry (reference value: 1.75 %); type: functional

Structure (SMILES) | IC50 (NCI-H460) [nM] | IC50 (HCT-116 [1]) [nM] | IC50 (BXPC-3) [nM] | also measured
CC(C)(C)C(=O)Nc1cccc(/C=c2\[nH]c(=O)/c(=C/c3nc[nH]c3C(C)(C)C)[nH]c2=O)c1 | 3180 | 2880 | 1890 | –
CC(C)(C)c1[nH]cnc1/C=c1\[nH]c(=O)/c(=C/c2cccc(NC(=O)c3ccccn3)c2)[nH]c1=O | 3850 | 226 | 520 | –
CCC(=O)Nc1cccc(/C=c2\[nH]c(=O)/c(=C/c3nc[nH]c3C(C)(C)C)[nH]c2=O)c1 | 2290 | 243 | 598 | –
CC(C)(C)c1[nH]cnc1/C=c1\[nH]c(=O)/c(=C/c2cccc(NC(=O)c3ccccc3)c2)[nH]c1=O | 936 | 47.6 | 398 | –
CC(C)(C)c1[nH]cnc1/C=c1\[nH]c(=O)/c(=C/c2cccc(NC(=O)C3CCC3)c2)[nH]c1=O | 1490 | 895 | 585 | –
CC(=O)Nc1cccc(/C=c2\[nH]c(=O)/c(=C/c3nc[nH]c3C(C)(C)C)[nH]c2=O)c1 | 667 | 238 | 540 | –
CC(C)(C)c1[nH]cnc1/C=c1\[nH]c(=O)/c(=C/c2cc3ccccc3[nH]2)[nH]c1=O | 1390 | 3310 | 2770 | –
Cc1ccc(F)cc1C(=O)Nc1cccc(/C=c2\[nH]c(=O)/c(=C/c3nc[nH]c3C(C)(C)C)[nH]c2=O)c1 | 1310 | 362 | 1590 | –
CC(C)(C)c1[nH]cnc1/C=c1\[nH]c(=O)/c(=C/c2cccc(NC(=O)C3CCCN3)c2)[nH]c1=O (configuration not stated) | 302 | 72.1 | 22.9 | –
CC(C)(C)c1[nH]cnc1/C=c1\[nH]c(=O)/c(=C/c2cccc(NC(=O)C3CC3)c2)[nH]c1=O | 2340 | 730 | 1570 | –
CC(C)(C)c1[nH]cnc1/C=c1\[nH]c(=O)/c(=C/c2cccc(NC(=O)C3CCCCC3)c2)[nH]c1=O | 618 | 1320 | 1020 | –
CC(C)(C)c1[nH]cnc1/C=c1\[nH]c(=O)/c(=C/c2cccc(N)c2)[nH]c1=O | 165 | 15.3 | 80.1 | –
CC(C)(C)c1[nH]cnc1/C=c1\[nH]c(=O)/c(=C/c2ccccc2)[nH]c1=O [PLINABULIN] | 30.9 | 8.8 | 18.4 | Activity [2]: 67%; Activity [3]: Active
COc1ccc(C(=O)Nc2cccc(/C=c3\[nH]c(=O)/c(=C/c4nc[nH]c4C(C)(C)C)[nH]c3=O)c2)cc1 | 1170 | 1040 | 1510 | –
CC(C)(C)c1[nH]cnc1/C=c1\[nH]c(=O)/c(=C/c2cccc(NC(=O)c3cc4ccccc4[nH]3)c2)[nH]c1=O | > 5000 | 2660 | 1760 | –
CC(C)(C)c1[nH]cnc1/C=c1\[nH]c(=O)/c(=C/c2ccc3cc[nH]c3c2)[nH]c1=O | 1840 | 2900 | 3770 | –
CC(C)(C)c1[nH]cnc1/C=c1\[nH]c(=O)/c(=C/c2cccc(NC(=O)CN)c2)[nH]c1=O | 843 | 214 | 272 | –
CC(C)C(=O)Nc1cccc(/C=c2\[nH]c(=O)/c(=C/c3nc[nH]c3C(C)(C)C)[nH]c2=O)c1 | 977 | 606 | 1460 | –
Cc1ccc(C(=O)Nc2cccc(/C=c3\[nH]c(=O)/c(=C/c4nc[nH]c4C(C)(C)C)[nH]c3=O)c2)c(C)c1 | 1280 | 504 | 2590 | –
CC(C)(C)c1[nH]cnc1/C=c1\[nH]c(=O)/c(=C/c2cccc(NC(=O)Cc3ccccc3)c2)[nH]c1=O | 1100 | 474 | 1700 | –
CC(C)[C@H](CN)C(=O)Nc1cccc(/C=c2\[nH]c(=O)/c(=C/c3nc[nH]c3C(C)(C)C)[nH]c2=O)c1 (stereo in doubt) | 1430 | 31.3 | 31.4 | –
CC(C)(C)c1[nH]cnc1/C=c1\[nH]c(=O)/c(=C/c2cccc(NC(=O)c3cccnc3)c2)[nH]c1=O | 4850 | 1060 | 1600 | –
CC(C)(C)c1[nH]cnc1/C=c1\[nH]c(=O)/c(=C/c2cccc(NC(=O)C3CCCC3)c2)[nH]c1=O | 743 | 643 | 3130 | –
CC(C)(C)c1[nH]cnc1/C=c1\[nH]c(=O)/c(=C/c2cccc(NC(=O)c3cccc(C(=O)c4ccccc4)c3)c2)[nH]c1=O | > 5000 | > 5000 | 4460 | –
CC(C)(C)c1[nH]cnc1/C=c1\[nH]c(=O)/c(=C/c2cccc3cc[nH]c23)[nH]c1=O | 286 | 390 | 9.5 | –
CC(C)(C)c1[nH]cnc1/C=c1\[nH]c(=O)/c(=C/c2cccc(NC(=O)c3ccc(F)cc3)c2)[nH]c1=O | 271 | 123 | 595 | –
CC(C)(C)c1[nH]cnc1/C=c1\[nH]c(=O)/c(=C/c2c[nH]c3ccccc23)[nH]c1=O | 82.8 | 6.5 | 13.7 | –
CC(C)(C)c1[nH]cnc1/C=c1\[nH]c(=O)/c(=C/c2cccc3[nH]ccc23)[nH]c1=O | 20.9 | 7.3 | 16.7 | Activity [2]: 77%; Activity (HCT-116 [4]): Dose-Dependent Effect; fold change (FC) (HCT-116 [5]): 1.1; fold change (FC) (HCT-116 [6]): 1.4; fold change (FC) (HCT-116 [7]): 2.7; fold change (FC) (HCT-116 [8]): 3.9; fold change (FC) (HCT-116 [9]): 6.4; Activity (HCT-116 [10]): 33.6%; Activity (HCT-116 [11]): 41.45%; Activity (HCT-116 [12]): 32.3%; Activity (HCT-116 [13]): 37.05%; Activity (HCT-116 [14]): 5.69%; Activity (HCT-116 [15]): 41.7%; Activity [16]: 4.9%; Activity (HCT-116 [17]): 2%; Activity (HCT-116 [18]): 6.15%; Activity (HCT-116 [19]): 2.55%; Activity [3]: Active
CC(C)(C)c1[nH]cnc1/C=c1\[nH]c(=O)/c(=C/c2ccc3[nH]ccc3c2)[nH]c1=O | 223 | 5.9 | 6.7 | –
